{"source": "patent EP2064211B1", "about": "“IMIDAZO[1,2-A]PYRIDINE HYDROXYMATE COMPOUNDS THAT ARE INHIBITORS OF HISTONE DEACETYLASE” (MEI Pharma, Inc., priority 2006, dated 2008)", "key": {"HDAC1 enzyme": {"target": "T1, HDAC1 enzyme (Homo sapiens, UniProt Q13547)", "T1 construct": "Amplification of human HDAC1 coding region from this cDNA library was cloned separately into the baculovirus expression pDEST20 vector; made in house; host or cells: SF9 insect cells (baculovirus, pDEST20 vector)", "T1 sequence (Q13547 whole entry)": "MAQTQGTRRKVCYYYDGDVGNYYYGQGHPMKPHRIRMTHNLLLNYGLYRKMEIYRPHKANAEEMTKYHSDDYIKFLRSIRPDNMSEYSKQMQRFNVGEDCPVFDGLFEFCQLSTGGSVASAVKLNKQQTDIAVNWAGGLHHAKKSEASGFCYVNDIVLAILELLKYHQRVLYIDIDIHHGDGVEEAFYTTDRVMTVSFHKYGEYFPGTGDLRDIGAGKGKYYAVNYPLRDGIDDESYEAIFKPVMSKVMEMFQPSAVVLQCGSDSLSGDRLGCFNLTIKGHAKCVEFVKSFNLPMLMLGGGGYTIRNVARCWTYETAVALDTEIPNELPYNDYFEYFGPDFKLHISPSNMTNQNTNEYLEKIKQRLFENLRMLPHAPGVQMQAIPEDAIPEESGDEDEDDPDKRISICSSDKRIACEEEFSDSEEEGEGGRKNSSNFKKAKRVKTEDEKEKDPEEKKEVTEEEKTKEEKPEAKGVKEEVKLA", "experiment": "In vitro HDAC assay for determination of IC50 values (BIOMOL fluorescent-based HDAC activity assay)", "type": "biochemical", "settings": "recombinant GST-HDAC1, 500 uM Flur de lys substrate, room temperature 2 h; read-out: IC50 (HDAC 1)"}, "Colo205 cells": {"test_system": "Colo205 cells", "experiment": "Cell-based proliferation assay for determination of GI50 values (CyQUANT)", "design": "species or system Human", "settings": "Homo sapiens, COLO 205, compound treatment 96 h, concentration for 50% inhibition of cell growth, read-out: Gl50 (Colo205)"}, "[1]": {"experiment": "Measurement of microsomal stability", "type": "in vitro ADME", "settings": "pooled human liver microsomes 1.0 mg/ml, test compound 5 µM, pH 7.4, incubation up to 60 min", "procedure": "Metabolic stability measurements in vitro using liver microsomes aids in the prediction of in vivo hepatic clearance and compound stability towards phase I biotransformation reactions mediated by P450 isozymes.\nPooled human liver microsome (HLM) preparation was purchased from BD Gentest (BD BioSciences). The incubations consisted of test compound (5 µM) or control compound (Verapamil), NADPH-generating system solution A (25 mM NADP^+, 66 mM glucose-6-phosphate, 66 mM MgCl2 in H2O), NADPH-generating system solution B (40 U/ml glucose-6-phosphate dehydrogenase in 5 mM sodium citrate) and 1.0 mg/ml microsomal protein, respectively, in 100 mM potassium phosphate buffer (pH 7.4). Samples are incubated for 0, 5, 15, 30, 45, 60min. Reaction is terminated with ice-cold 80% acetonitrile and 20% DMSO. Samples are subsequently centrifuged at 4°C for 15 min at 2,000 rpm. 100 µL of the supernatant is transferred to the LC-MS plate for analysis. Before quantitative analysis, the compound is tuned in the LC/MS machine to get the optimized MS condition. Liquid chromatography is performed on a Luna C18 column (Phenomenex U.S.A, Torrance, CA) (2x50mm, […]). Percentage (%) remaining of compound (by area) of each time point is calculated with respect to time 0. Plot %remaining against time (min) to obtain the curve and use the Prism software to obtain the T1/2. […]"}, "[2]": {"experiment": "High Throughput Solubility Profiling (HTSP), kinetic solubility", "type": "physicochemical", "settings": "phosphate buffer with 2.5% DMSO, aqueous buffer, kinetic from dmso stock, phosphate buffer (pH 7), final concentration 250 µM", "procedure": "Determining compound aqueous solubility has become an essential early measurement in the drug discovery process. Poor aqueous solubility can cause problems in many in vitro testing techniques, leading to unreliable results. The standard way to determine the solubility of a compound is to use the shake-flask solubility method. However, this method is inherently low-throughput and labour intensive.\n10mM compound stock in DMSO was dissolved in phosphate buffer (pH 7) to give a final concentration of 250µM in 96-well plates in triplicate. The plate was shaken for 1.5 hours at 450 rpm and left to stand for 2 hours to allow the compound to reach its saturation point. The plate was then centrifuged at 2000g for 15 minutes. The supernatant was transferred and mixed with 20µL of DMSO in another 96-well plate. A calibration curve at 100µM and 250µM was prepared from the 10mM stock by dissolving in 60% methanol/phosphate buffer solution. LC/MS was used in the analysis and the area counts were obtained by using the Quantify Method Editor. Using the three point standard curve including zero, the results for solubility were reported. […]"}}}
{"smiles": "CCCCc1nc2cc(C=CC(=O)NO)ccn2c1CNC(C)(C)C", "note": "[Compound 5, 3-[2-Butyl-3-(tert-butylamino-methyl)-imidazo[1,2-a]pyridin-7-yl]-N-hydroxy-acrylamide]", "values": [{"measurement": "IC50", "setting": "HDAC1 enzyme", "value": 20, "unit": "nM"}, {"measurement": "IC50", "setting": "Colo205 cells", "value": 140, "unit": "nM"}, {"measurement": "half-life at 5 µM", "setting": "[1]", "value": "> 1", "unit": "h"}, {"measurement": "solubility", "setting": "[2]", "value": 200, "unit": "µM"}]}
{"smiles": "CCCc1nc2cc(C=CC(=O)NO)ccn2c1CNC(C)(C)C", "note": "[Compound 48, 3-[3-(tert-Butylamino-methyl)-2-propyl-imidazo[1,2-a]pyridin-7-yl]-N-hydroxy-acrylamide]", "values": [{"measurement": "IC50", "setting": "HDAC1 enzyme", "value": 40, "unit": "nM"}, {"measurement": "IC50", "setting": "Colo205 cells", "value": 180, "unit": "nM"}, {"measurement": "half-life at 5 µM", "setting": "[1]", "value": "> 1", "unit": "h"}, {"measurement": "solubility", "setting": "[2]", "value": 168, "unit": "µM"}]}
{"smiles": "CCN(CCC(C)C)Cc1c(C)nc2cc(C=CC(=O)NO)ccn12", "note": "[Compound 49, 3-(3-{[Ethyl-(3-methyl-butyl)-amino]-methyl}-2-methyl-imidazo[1,2-a]pyridin-7-yl)-N-hydroxy-acrylamide]", "values": [{"measurement": "IC50", "setting": "Colo205 cells", "value": 110, "unit": "nM"}, {"measurement": "half-life at 5 µM", "setting": "[1]", "value": "> 1", "unit": "h"}, {"measurement": "solubility", "setting": "[2]", "value": "> 250", "unit": "µM"}]}
{"smiles": "CC(C)CCc1nc2cc(C=CC(=O)NO)ccn2c1CNC(C)(C)C", "note": "[Compound 65, 3-[3-(tert-Butylamino-methyl)-2-(3-methyl-butyl)-imidazo[1,2-a]pyridin-7-yl]-N-hydroxy-acrylamide]", "values": [{"measurement": "IC50", "setting": "HDAC1 enzyme", "value": 20, "unit": "nM"}, {"measurement": "IC50", "setting": "Colo205 cells", "value": 100, "unit": "nM"}, {"measurement": "half-life at 5 µM", "setting": "[1]", "value": "> 1", "unit": "h"}]}
